{
  "source": "patent US11766060B2",
  "about": "“Compositions comprising mogrosides, steviol glycosides and glycosylated derivatives thereof and methods of enhancing the mouthfeel or sweetness of consumables” (Sweet Green Fields, LLC, priority 2016, dated 2023)",
  "key": {"[1]": {"assay": "Evaluation of the sweetness detection threshold (8 panelists rate sweet / not sweet)", "format": "in vivo, human", "conditions": "at a 1 ppm level", "from_the_text": "The phrase “sweetness detection threshold” refers to the minimum concentration at which panelists consisting of 8 persons are able to detect sweetness in a composition, liquid or solid. This is further defined as provided in the Examples herein.\nThreshold of sweetness refers to a concentration of a material that below a concentration where sweetness can be detected may still impart a flavor to the consumable (including water). When half of a trained panel of testers determines something is “sweet” at a given concentration, then the sample meets the threshold. When less than half of a panel of testers cannot discern sweetness at a given concentration, then concentrations of the substance below the sweetness level are considered a flavoring.\nTo evaluate the sweetness potency of various concentrations of GMG or MGV in aqueous solutions, aqueous solutions of GMG and MGV at various concentrations were prepared and were evaluated at room temperature. The sample solutions were evaluated by 8 panelists that were previously qualified for their taste acuity. Samples coded with triple digit numbers were given to a panelist randomly. Panelists tasted the samples randomly. After tasting a sample, every panelist was required to wash their mouth with water and rest for 60 seconds. Panelists gave ratings of “sweet” or “not sweet” to each sample."}, "[2]": {"assay": "Evaluation of taste profile compared to reference sugar solutions by panel (Example 3 method)", "format": "in vivo, human", "conditions": "inclusion of thaumatin", "method": "I. The components where mixed and then dissolved in aqueous citric acid (pH 3.8) with ultrasound at room temperature and left to equilibrate for 30 minutes.\nThe sample solutions were evaluated by 8 panelists that have been previously qualified for their taste acuity. Samples coded with triple digit numbers were given to the panelist randomly. Panelists tasted the samples randomly. After tasting a sample, every panelist was required to rinse their mouth with water and rest for 60 seconds. For the sweetness evaluation of each sample, the sample was tested in pairs with several sugar solutions of given sweetness, such as 5%, 6%, 7%, 8%, 9%, or 10% as standard reference samples. The sweetness of each sample was compared with those of the reference sugar solutions, and the sweetness was evaluated and recorded according to the judgment that the sweetness of the sample was similar to a specific sugar solution or between specific sugar solutions. The results were recorded as the mean value of the results provided by the panels.\nFor evaluation of taste profile, the samples were tested and were compared to reference sugar solutions. Panelists judged if the taste profile of sample solutions were similar to that of sugar."}, "[3]": {"conditions": "pure thaumatin; cited from earlier work"}},
  "data": [
    {"substance": "thaumatin", "values": [
      {"measurement": "sweetness imparted to a composition", "setting": "[1]", "value": "no sweetness"},
      {"measurement": "taste profile of MGV", "setting": "[2]", "value": "improved"},
      {"measurement": "sweetness threshold", "setting": "[3]", "value": 7, "unit": "ppm"}
    ]}
  ]
}
